Measured values: article PMC8836258, “Structural Basis of Redox-Sensing Transcriptional Repressor Rex with Cofactor NAD^+ and Operator DNA” (International Journal of Molecular Sciences, 2022)

Biological target: T1, Tma Rex (Thermotoga maritima, UniProt Q9WY16)
T1 construct: gene rex1; Full-length, residues 1-208 (5-207 modelled); homodimer; P-loop residues 89-94 GAGNIG; crystallised with 22-bp TM0201 operator DNA
T1 sequence (Q9WY16 1-208): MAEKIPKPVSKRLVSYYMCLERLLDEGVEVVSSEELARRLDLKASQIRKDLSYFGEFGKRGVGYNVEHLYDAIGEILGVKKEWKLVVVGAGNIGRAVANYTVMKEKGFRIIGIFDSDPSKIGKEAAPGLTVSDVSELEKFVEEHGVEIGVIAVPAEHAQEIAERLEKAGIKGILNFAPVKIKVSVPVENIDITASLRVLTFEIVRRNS
Test: X-ray crystallography, co-crystal structure at […] A
Type: binding
Settings: ternary complex with 22-bp TM0201 operator DNA; 1 mM NAD+ in co-crystallization; pH 6.5, 296 K; one NAD+ per monomer, C-terminal Rossmann domain near dimer interface

In the case of `NC(=O)c1ccc[n+]([C@@H]2O[C@H](COP(=O)(O)OP(=O)(O)OC[C@H]3O[C@@H](n4cnc5c(N)ncnc54)[C@H](O)[C@@H]3O)[C@@H](O)[C@H]2O)c1` [NAD^+], the “X-ray crystallography, co-crystal structure at 2.40 A” value was “a dimeric Rex protein bound to one molecule of NAD^+ per monomer”.
